This assay deals with T1, West Nile Virus NS3 protease (West Nile virus, UniProt P06935, DELINS1467-1501GGGGSGGGG).
T1 construct: truncated form of West Nile NS3 protease (residues 1-186); purchased AnaSep (AnaSpec), San Jose, Calif., USA
T1 sequence (P06935 with tags, fused parts or gaps DELINS1467-1501GGGGSGGGG): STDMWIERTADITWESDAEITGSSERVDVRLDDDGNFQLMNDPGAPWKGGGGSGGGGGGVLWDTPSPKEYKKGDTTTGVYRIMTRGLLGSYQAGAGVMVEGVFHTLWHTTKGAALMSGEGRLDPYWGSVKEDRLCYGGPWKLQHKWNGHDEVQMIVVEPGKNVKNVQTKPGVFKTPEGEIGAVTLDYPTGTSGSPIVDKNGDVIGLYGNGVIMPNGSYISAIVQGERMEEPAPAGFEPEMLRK
Kind of assay: West Nile Virus NS3 protease inhibition assay (SensoLyte 440 kit). It counts as biochemical. The settings on record: LOPAC compounds clustering with fraction 2. Here is the method:
The SPE fraction was further fractionated in order to isolate the prominent peaks identified by LC-MS using the technique of HPLC and determined retention times.
The West Nile Virus NS3 protease inhibition assay was carried out using the commercial kit SensoLyte® 440 West Nile Virus Protease Assay Kit (AnaSep, San Jose, Calif., USA). The protease is a truncated form of West Nile NS3 protease (residues 1-186) connected to it is NS2B cofactor (residues 49-96) by the linker sequence, […]. Protease activity was assessed by its ability to cleave the fluorogenic peptide Pyr-RTKRAMC, and the subsequent production of free AMC (7-amino-4-methylcoumarin) fluorophores. All extracts and controls were performed with three replicates in a 384-well plate format, each with a total reaction mixture of 33 μl. To begin, the test extracts and protease solution were incubated at 37° C. for 10 min before the addition of the pre-heated substrate. After substrate addition and gentle mixing the reaction was incubated at 37° C. for one hour. The fluorophore was detected with the use of a SpectraMax® Paradigm® Multimode Microplate Detection Platform (Molecular Devices, Sunnyvale, Calif., USA) by scanning at 354 nm excitation wavelength and 442 n emission wavelength.

With `C[C@]12C[C@H](O)[C@H]3[C@@H](CCC4=CC(=O)CC[C@@]43C)[C@@H]1CC[C@@H]2C(=O)CO` (single isomer, unassigned) [Corticosterone], the “inhibition of the WNV NS protease (in words)” value (“inhibition” below) was “no inhibition”. As for `Clc1nccc2c1ccc1ccccc12` [CBIQ], the “inhibition” value is reported as “no inhibition”. For `C[C@@H]1C(=O)NC2=Nc3cccc(Cl)c3CN21` [Quazinone], the “inhibition” value is reported as “no inhibition”. The value for `O.O.O=c1c(O)c(-c2ccc(O)c(O)c2)oc2cc(O)cc(O)c12` [Quercetin dehydrate] was “no inhibition”; that for `CCN1/C(=C/C(C)=O)Sc2ccc(OC)cc21` [TG003] was “no inhibition”.

These data come from patent publication US10376498B2, “3-alkyl pyridinium compound from red sea sponge with potent antiviral activity” (priority 2014, dated 2019).
